Residues, ends and D or L forms follow the SMILES beside them.
What was measured:
C3H10T1/2 cells = test: Cytotoxicity test in vitro, C3H10T1/2 cells (protein concentration, BCA); assay type: cell-based; conditions: 100 μg/ml, six days
Experimental: C3H10T1/2 cells were dispersed in Eagle's MEM containing 10% fetal bovine serum, pipetted on a 96-well culture plate, 3750 cells per well, and incubated at 37° C. in the presence of 5% CO2. Into the wells, a PBS solution of the peptide described in Example 1 was added so that the resulting concentration became 100 μg/ml, followed by incubation under the same conditions for six days. Then the culture medium was removed and a cytolytic solution (0.1M Tris-HCl buffer containing 1% Triton X-100, pH 9) was added to dissolve cells. Then the concentration of protein was determined using BCA reagent (produced by Funakoshi Kabushiki Kaisha).

rat bone marrow cells = test: Cytotoxicity test in vitro, rat bone marrow cells (colony count, Giemsa staining); assay type: cell-based, rats (Lewis); conditions: 30 μg/ml, seven days
Excerpt: Femurs were aseptically taken out of six-week-old female rats (Lewis, purchased from Nippon SLC). Both ends of the femurs were cut off. Then bone marrow was extruded into centrifugal tubes by means of Eagle's MEM containing 10% of fetal bovine serum using an injection syringe with a 21 G injection needle. The bone marrow cells were sufficiently dispersed with a pipette and filtered through a 40 μm filter to remove agglutinations. The resulting bone marrow cells were centrifuged with Eagle's MEM containing 10% of fetal bovine serum three times (1200 rpm, 5 min.×3), and then the number of cells was counted. The bone marrow cells were diluted with Alpha MEM containing 10% of fetal bovine serum so that relatively large bone marrow cells were present in a concentration of 10^6/ml. The dilution was pipetted 10 ml in each culture flask having a culture area of 25 cm^2 and incubated at 37° C. in the presence of 5% CO2. […]
Twenty-four hours after the incubation was started, culture medium was removed and Alpha MEM containing 10% of fetal bovine serum and 30 μg/ml of the peptide described in Example 1 was added to the cells under culture. […] After seven days, the number of formed colonies of bone marrow cells was counted using Giemsa staining. […]

rats = test: Acute toxicity test on rats; assay type: in vivo, rats (Lewis); conditions: 500 μg intraperitoneally three times in a week
Experimental: A PBS solution of 500 μg of the peptide described in Example 1 was intraperitoneally administered to six-week-old female rats (Lewis, purchased from Nippon SLC) three times in a week. […] Neither were the rats observed to have a poor coat of fur or any abnormal behavior during the test.

CC[C@H](C)[C@H](NC(=O)[C@H](C)NC(=O)[C@H](CO)NC(=O)[C@H](CC(C)C)NC(=O)[C@H](CCC(=O)O)NC(=O)[C@@H](NC(=O)[C@@H]1CCCN1C(=O)[C@@H](NC(=O)[C@H](CS)NC(=O)[C@H](CS)NC(=O)[C@H](C)NC(=O)[C@H](CCCCN)NC(=O)[C@@H]1CCCN1C(=O)[C@@H](NC(=O)[C@H](CCCCN)NC(=O)[C@H](CO)NC(=O)[C@H](CC(N)=O)NC(=O)[C@@H](NC(=O)[C@H](CO)NC(=O)[C@@H](N)CC(N)=O)C(C)C)[C@@H](C)CC)C(C)C)[C@@H](C)O)C(=O)O [Example 1] (H-NSVNSKIPKACCVPTELSAI-OH)
cytotoxicity (conclusion) (C3H10T1/2 cells; C3H10T1/2 cells): did not have cytotoxicity
concentration of protein (C3H10T1/2 cells; n=12, PBS control 0.07±0.03): 120 ± 20 µg/mL
number of formed colonies of bone marrow cells (rat bone marrow cells; average per flask, PBS control 89): 101
cytotoxicity (conclusion) (rat bone marrow cells; rat bone marrow cells): did not have cytotoxicity
increase in weight (rats; after a week, n=6, PBS control 23±5): 25 ± 6 g
acute toxicity (conclusion) (rats; no poor coat of fur or abnormal behavior): no significant acute toxicity
